In patent US20220048944A1, “FUNC[…] AS ANTIVIRAL AGENTS” (Enanta Pharmaceuticals, Inc., priority 2020, published 2022):

Target: SARS-CoV-2 3CL-protease (Severe acute respiratory syndrome coronavirus 2, UniProt P0DTD1)
Experiment: SARS-CoV-2 3C-like (3CL) protease fluorescence assay (FRET)
Assay type: biochemical
Details: recombinant SARS-CoV-2 3CL-protease 10 nM, TAMRA-[…]-Dabcyl-OH substrate, 30 min preincubation at RT, run in duplicate
Experimental: SARS-CoV-2 3C-like (3CL) protease fluorescence assay (FRET): Recombinant SARS-CoV-2 3CL-protease was expressed and purified. […] Black, low volume, round-bottom, 384 well microplates were used. In a typical assay, 0.85 μL of test compound was dissolved in DMSO then incubated with SARS-CoV-2 3CL-protease (10 nM) in 10 μL assay buffer (50 mM HEPES [pH 7.5], 1 mM DTT, 0.01% BSA, 0.01% Triton-X 100) for 30 min at RT. Next, 10 μL of 3CL-protease substrate (40 μM) in assay buffer was added and the assays were monitored continuously for 1 h in an Envision multimode plate reader operating in fluorescence kinetics mode with excitation at 540 nm and emission at 580 nm at RT. No compound (DMSO only) and no enzyme controls were routinely included in each plate. All experiments were run in duplicate.
Data were fitted to normalized activity (variable slope) versus concentration fit in GraphPad Prism 7 to determine IC50.

Row | SMILES | IC50
1 | COc1cccc2[nH]c(C(=O)N[C@H](C(=O)N[C@H](C#N)C[C@@H]3CCNC3=O)c3ccccc3)cc12 [Example 5, N—((S)-2-(((S)-1-cyano-2-((S)-2-oxopyrrolidin-3-yl)ethyl)amino)-2-oxo-1-phenylethyl)-4-methoxy-1H-indole-2-carboxamide] | > 1 µM
2 | COc1cccc2[nH]c(C(=O)N[C@H](C(=O)N[C@H](C#N)C[C@@H]3CCNC3=O)C(C)(C)C)cc12 [Example 19, N—((S)-1-(((S)-1-cyano-2-((S)-2-oxopyrrolidin-3-yl)ethyl)amino)-3,3-dimethyl-1-oxobutan-2-yl)-4-methoxy-1H-indole-2-carboxamide] | > 1 µM
3 | N#C[C@H](C[C@@H]1CCCNC1=O)NC(=O)[C@H](CC1CCCCC1)NC(=O)c1cc2ccccc2o1 [Example 15, N—((S)-1-(((S)-1-cyano-2-((S)-2-oxopiperidin-3-yl)ethyl)amino)-3-cyclohexyl-1-oxopropan-2-yl)benzofuran-2-carboxamide] | 0.1 to 1 µM
4 | CC(C)C[C@H](NC(=O)c1cc2ccccc2[nH]1)C(=O)N[C@H](C#N)C[C@@H]1CCNC1=O [Example 2, N—((S)-1-(((S)-1-cyano-2-((S)-2-oxopyrrolidin-3-yl)ethyl)amino)-4-methyl-1-oxopentan-2-yl)-1H-indole-2-carboxamide] | 0.1 to 1 µM
5 | COc1cccc2[nH]c(C(=O)N[C@H](C(=O)N[C@H](C#N)C[C@@H]3CCNC3=O)C(C)C)cc12 [Example 7, N—((S)-1-(((S)-1-cyano-2-((S)-2-oxopyrrolidin-3-yl)ethyl)amino)-3-methyl-1-oxobutan-2-yl)-4-methoxy-1H-indole-2-carboxamide] | > 1 µM
6 | N#C[C@H](C[C@@H]1CCNC1=O)NC(=O)[C@H](CC1CCCCC1)NC(=O)c1cc2ccccc2o1 [Example 22, N—((S)-1-(((S)-1-cyano-2-((S)-2-oxopyrrolidin-3-yl)ethyl)amino)-3-cyclohexyl-1-oxopropan-2-yl)benzofuran-2-carboxamide] | > 1 µM
7 | CC(C)C[C@H](NC(=O)c1cc2ccccc2o1)C(=O)N[C@H](C#N)C[C@@H]1CCNC1=O [Example 13, N—((S)-1-(((S)-1-cyano-2-((S)-2-oxopyrrolidin-3-yl)ethyl)amino)-4-methyl-1-oxopentan-2-yl)benzofuran-2-carboxamide] | > 1 µM
8 | COc1cccc2[nH]c(C(=O)N[C@@H](CCCc3ccccc3)C(=O)N[C@H](C#N)C[C@@H]3CCNC3=O)cc12 [Example 11, N—((S)-1-(((S)-1-cyano-2-((S)-2-oxopyrrolidin-3-yl)ethyl)amino)-1-oxo-5-phenylpentan-2-yl)-4-methoxy-1H-indole-2-carboxamide] | > 1 µM
9 | COc1cccc2[nH]c(C(=O)N[C@H](C(=O)N[C@H](C#N)C[C@@H]3CCNC3=O)C3CCCCC3)cc12 [Example 6, N—((S)-2-(((S)-1-cyano-2-((S)-2-oxopyrrolidin-3-yl)ethyl)amino)-1-cyclohexyl-2-oxoethyl)-4-methoxy-1H-indole-2-carboxamide] | > 1 µM
10 | COc1cccc2[nH]c(C(=O)N[C@@H](CCSC)C(=O)N[C@H](C#N)C[C@@H]3CCNC3=O)cc12 [Example 12, N—((S)-1-(((S)-1-cyano-2-((S)-2-oxopyrrolidin-3-yl)ethyl)amino)-4-(methylthio)-1-oxobutan-2-yl)-4-methoxy-1H-indole-2-carboxamide] | 0.1 to 1 µM
11 | COc1cccc2[nH]c(C(=O)N[C@@H](CC3CCCC3)C(=O)N[C@H](C#N)C[C@@H]3CCNC3=O)cc12 [Example 10, N—((S)-1-(((S)-1-cyano-2-((S)-2-oxopyrrolidin-3-yl)ethyl)amino)-3-cyclopentyl-1-oxopropan-2-yl)-4-methoxy-1H-indole-2-carboxamide] | 0.1 to 1 µM
12 | COc1cccc2[nH]c(C(=O)N[C@@H](Cc3ccccc3)C(=O)N[C@H](C#N)C[C@@H]3CCCNC3=O)cc12 [Example 18, N—((S)-1-(((S)-1-cyano-2-((S)-2-oxopiperidin-3-yl)ethyl)amino)-1-oxo-3-phenylpropan-2-yl)-4-methoxy-1_H-indole-2-carboxamide] | 0.1 to 1 µM
13 | COc1cccc2[nH]c(C(=O)N[C@@H](CC(F)(F)F)C(=O)N[C@H](C#N)C[C@@H]3CCNC3=O)cc12 [Example 25, N—((S)-1-(((S)-1-cyano-2-((S)-2-oxopyrrolidin-3-yl)ethyl)amino)-4,4,4-trifluoro-1-oxobutan-2-yl)-4-methoxy-1H-indole-2-carboxamide] | 0.1 to 1 µM
14 | COc1cccc2[nH]c(C(=O)N[C@@H](CC3CCCCC3)C(=O)N[C@H](C#N)C[C@@H]3CCCNC3=O)cc12 [Example 14, N—((S)-1-(((S)-1-cyano-2-((S)-2-oxopiperidin-3-yl)ethyl)amino)-3-cyclohexyl-1-oxopropan-2-yl)-4-methoxy-1H-indole-2-carboxamide] | < 0.1 µM
15 | COc1cccc2[nH]c(C(=O)N[C@@H](CCc3ccccc3)C(=O)N[C@H](C#N)C[C@@H]3CCNC3=O)cc12 [Example 8, N—((S)-1-(((S)-1-cyano-2-((S)-2-oxopyrrolidin-3-yl)ethyl)amino)-1-oxo-4-phenylbutan-2-yl)-4-methoxy-1H-indole-2-carboxamide] | 0.1 to 1 µM
16 | COc1cccc2[nH]c(C(=O)N[C@@H](CSC)C(=O)N[C@H](C#N)C[C@@H]3CCNC3=O)cc12 [Example 24, N—((R)-1-(((S)-1-cyano-2-((S)-2-oxopyrrolidin-3-yl)ethyl)amino)-3-(methylthio)-1-oxopropan-2-yl)-4-methoxy-1H-indole-2-carboxamide] | 0.1 to 1 µM
17 | COc1cccc2[nH]c(C(=O)N[C@@H](Cc3ccccc3)C(=O)N[C@H](C#N)C[C@@H]3CCNC3=O)cc12 [Example 3, N—((S)-1-(((S)-1-cyano-2-((S)-2-oxopyrrolidin-3-yl)ethyl)amino)-1-oxo-3-phenylpropan-2-yl)-4-methoxy-1H-indole-2-carboxamide] | 0.1 to 1 µM
18 | COc1cccc2[nH]c(C(=O)N[C@@H](CC(C)C)C(=O)N[C@H](C#N)C[C@@H]3CCCNC3=O)cc12 [Example 16, N—((S)-1-(((S)-1-cyano-2-((S)-2-oxopiperidin-3-yl)ethyl)amino)-4-methyl-1-oxopentan-2-yl)-4-methoxy-1H-indole-2-carboxamide] | < 0.1 µM
